# PMC6921279 (Frontiers in Endocrinology, 2019)
# Experiments:
# [1] = system: CRF1R-mediated Akt phosphorylation; assay: CRF-induced Akt phosphorylation at Ser473 in COS-7 cells expressing HA-CRF1R; type: cell-based, human; conditions: wortmannin 100 nM, 30 min pretreatment; 100 nM CRF, 5 min
# Description: Plasmid pRK5 encoding the carboxyl terminus of βARK that contains its βγ-binding domain (ct-βARK) was kindly provided by Dr. W. Koch (Center for Translational Medicine, Temple University, Philadelphia, PA), which is a scavenger for G protein βγ subunits ([25]). […] Plasmid pUSEamp encoding dominant-negative Akt-K179M (dn-Akt) was from Upstate Biotechnology (Lake Placid, NY).
# (§1) COS-7 cells (from the American Type Culture Collection) were cultured at 37°C in a humidified atmosphere of 95% air, 5% CO2, in DMEM supplemented with 10% FBS, 100 μg/ml streptomycin, and 100 units/ml penicillin (COS-7 growth medium). Transient transfections were performed using LipofectAMINE (Life Technologies: Gaithersburg, MD) as described previously ([27]). Cells were seeded at 8 × 10^5 cells/10-cm dish in COS-7 medium and cultured for 3 days before transfection. COS-7 cells were transfected in 5 ml/dish OptiMEM containing 10 μg/ml LipofectAMINE with empty vector, pcDNA3 encoding the HA-CRF1R or the HA-CRF1R-Δ386 mutant. […] After replacing the transfection medium with fresh growth medium, transfected COS-7 cells were cultured for 1 day. Subsequently, cells were re-seeded in 6-well plates and cultured for an additional day prior to the experiment.
# The protocols for measuring total and phosphorylated ERK1/2, c-Src, PYK2, Akt, and EGFR have been previously published ([28], [29]). After cells were cultured to 60–70% confluence, they were serum-deprived for 24 h. On the day of the experiment, cells were treated with the indicated ligands and inhibitors. […] After treatment, cells were placed on ice, the media was aspirated, and the cells were washed twice with ice-cold PBS and lysed in 100 μl of Laemmli sample buffer 1X. The lysates were briefly sonicated, heated at 95°C for 5 min, and centrifuged for 5 min at 14,000 rpm. Resulting supernatants were loaded in separate lanes of a 10% SDS-PAGE gels and electrophoresed. Next, Western transfer on to PDVF membranes was completed. The Western blots were then probed with specific antibodies targeting phosphorylated and non-phosphorylated forms of ERK1/2, c-Src, PYK2, Akt, and EGFR for primary immunodetection. […] The labeled bands were quantified using the Quantity One 4.6.3 software program (Bio-Rad).
# Figure 7 CRF mediates Akt activation. […] Total cell lysates were separated by SDS-PAGE and analyzed by immunoblotting with anti-p-Akt Ser^473, as described in Materials and Methods. Akt phosphorylation was quantitated by densitometry, and mean values were plotted from three to five independent experiments. […]
# [2] = system: EGF-stimulated Akt phosphorylation; assay: Modulation of EGF-stimulated Akt phosphorylation in COS-7 cells; type: cell-based; conditions: wortmannin 100 nM, 30 min pretreatment; 10 ng/ml EGF, 10 min
# Description: as §1, with “Subsequently, cells were re-seeded in 6-well plates and cultured for an additional day prior to the experiment.” left out
# The protocols for measuring total and phosphorylated ERK1/2, c-Src, PYK2, Akt, and EGFR have been previously published ([28], [29]). […] The labeled bands were quantified using the Quantity One 4.6.3 software program (Bio-Rad).
# Figure 8 Involvement of the PI3K pathway in CRF-stimulated ERK1/2 phosphorylation. […] Total cell lysates were separated by SDS-PAGE and analyzed by immunoblotting with anti-p-Akt Ser^473 (A) or anti-p-ERK1/2 Thr^202/Tyr^204 (A–C), as described in Materials and Methods. Akt and ERK1/2 phosphorylation were quantitated by densitometry, and mean values were plotted from three to five independent experiments. […]
structure (smiles),measurement,setting,value
COC[C@H]1OC(=O)c2coc3c2[C@@]1(C)C1=C(C3=O)[C@@H]2CCC(=O)[C@@]2(C)C[C@H]1OC(C)=O [wortmannin],effect on CRF1R-mediated Akt signaling activation,[1],abolished CRF1R-mediated Akt signaling activation
same,effect on EGF-stimulated Akt phosphorylation,[2],abolished the stimulatory action of EGF on Akt
